Data reported in BindingDB's records for patent US12247004 (Oxford Drug Design, 2025).

Tests used:
Isoleucine--tRNA ligase = Isoleucine--tRNA ligase (Escherichia coli (strain K12), UniProt P00956); test: Enzyme Inhibition Assay
Protocol: (§1) Single Point Percentage InhibitionThe activity of the pathogenic aaRSs was monitored by measuring AMP production using the commercial kit AMP-Glo (Promega, Madison, USA).Ligand stock solutions were prepared in 100% DMSO at 10 mM concentration. An assay buffer consisting of 100 mM Tris HCl pH 7.6, 40 mM MgCl, 20 mM KCl and 150 mM NaCl was prepared in dH2O. […] A substrate solution was also prepared in assay buffer with 50 mM L-leucine, 10 mM ATP and 100 mg/mL tRNA.

Leucine--tRNA ligase = Leucine--tRNA ligase (Escherichia coli (strain K12), UniProt P07813); test: Enzyme Inhibition Assay
Chain of Leucine--tRNA ligase (P07813 whole entry): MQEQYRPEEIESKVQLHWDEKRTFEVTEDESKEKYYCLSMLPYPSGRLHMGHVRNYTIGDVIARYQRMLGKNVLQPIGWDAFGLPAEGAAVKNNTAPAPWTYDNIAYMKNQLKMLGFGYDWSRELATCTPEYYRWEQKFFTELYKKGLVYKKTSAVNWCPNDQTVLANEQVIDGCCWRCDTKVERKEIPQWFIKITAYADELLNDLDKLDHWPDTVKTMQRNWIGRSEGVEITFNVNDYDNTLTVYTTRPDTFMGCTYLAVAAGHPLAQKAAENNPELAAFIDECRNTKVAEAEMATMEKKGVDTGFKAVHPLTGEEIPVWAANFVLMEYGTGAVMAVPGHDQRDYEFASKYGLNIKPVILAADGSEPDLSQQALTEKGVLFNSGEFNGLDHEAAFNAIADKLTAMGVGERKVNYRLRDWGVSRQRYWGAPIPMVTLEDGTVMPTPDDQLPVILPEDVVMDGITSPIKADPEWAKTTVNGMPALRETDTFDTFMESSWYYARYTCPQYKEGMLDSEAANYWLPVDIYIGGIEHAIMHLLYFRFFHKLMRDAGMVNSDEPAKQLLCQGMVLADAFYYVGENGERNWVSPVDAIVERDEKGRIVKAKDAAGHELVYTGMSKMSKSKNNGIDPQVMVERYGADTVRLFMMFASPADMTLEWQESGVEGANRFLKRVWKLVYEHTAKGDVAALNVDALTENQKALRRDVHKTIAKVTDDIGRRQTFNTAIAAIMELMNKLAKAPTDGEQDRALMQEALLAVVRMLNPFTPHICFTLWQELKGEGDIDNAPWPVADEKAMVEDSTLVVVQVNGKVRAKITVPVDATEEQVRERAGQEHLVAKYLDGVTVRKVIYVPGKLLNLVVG
Protocol: as §1

Chain of Isoleucine--tRNA ligase (P00956 whole entry): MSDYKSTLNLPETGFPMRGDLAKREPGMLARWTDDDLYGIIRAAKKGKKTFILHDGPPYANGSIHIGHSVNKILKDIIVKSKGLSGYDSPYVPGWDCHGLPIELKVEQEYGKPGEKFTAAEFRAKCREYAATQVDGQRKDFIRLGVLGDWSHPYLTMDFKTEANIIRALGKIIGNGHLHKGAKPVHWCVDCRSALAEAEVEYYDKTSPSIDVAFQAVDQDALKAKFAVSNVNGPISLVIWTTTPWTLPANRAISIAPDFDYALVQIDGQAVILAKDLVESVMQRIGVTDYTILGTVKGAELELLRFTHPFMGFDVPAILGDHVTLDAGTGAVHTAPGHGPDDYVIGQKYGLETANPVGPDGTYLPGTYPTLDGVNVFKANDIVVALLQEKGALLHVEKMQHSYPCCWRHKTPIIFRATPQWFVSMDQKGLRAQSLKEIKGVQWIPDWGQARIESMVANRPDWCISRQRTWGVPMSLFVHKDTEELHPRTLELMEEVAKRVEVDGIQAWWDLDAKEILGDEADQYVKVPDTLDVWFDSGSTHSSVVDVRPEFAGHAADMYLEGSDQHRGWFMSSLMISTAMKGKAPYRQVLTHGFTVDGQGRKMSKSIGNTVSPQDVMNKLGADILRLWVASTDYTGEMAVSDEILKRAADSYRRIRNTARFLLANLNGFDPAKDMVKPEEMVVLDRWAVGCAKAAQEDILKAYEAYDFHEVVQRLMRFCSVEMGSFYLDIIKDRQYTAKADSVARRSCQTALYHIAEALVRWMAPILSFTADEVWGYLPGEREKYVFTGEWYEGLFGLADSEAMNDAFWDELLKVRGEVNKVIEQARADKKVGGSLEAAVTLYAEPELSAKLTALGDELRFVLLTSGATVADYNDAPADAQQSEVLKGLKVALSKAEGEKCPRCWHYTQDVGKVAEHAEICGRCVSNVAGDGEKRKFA

`CC[C@H](C)[C@H](N)C(=O)N=S(N)(=O)c1ccc2ccccc2c1` (some centres not stated) [US12247004, Compound ANASIA-030] showed an IC50 (Isoleucine--tRNA ligase) of 9.59 µM.

Work on `CC(C)C[C@H](N)C(=O)N=S(N)(=O)c1cc[nH]n1` (some centres not stated) [US12247004, Compound ANASIA-064] yielded an IC50 (Leucine--tRNA ligase) of 2.17 µM.
